Reference: patent publication US20190345138A1, “HETEROCYCLIC AMIDES AS KINASE INHIBITORS” (GlaxoSmithKline Intellectual Property Development Limited, priority 2016, published 2019)
“Also recorded” adds a separate entry of the source.

How the values were obtained:
db/db mice = experiment: glucose homeostasis in db/db mice; assay type: in vivo, mouse; settings: 100 mg/kg/day in chow
Excerpt: We therefore investigated the ability of our small molecule RIPK1 inhibitor to improve glucose homeostasis in a diabetic animal model. Mice genetically deficient for the leptin receptor (db/db mice; Jackson Labs, BKS.Cg-Dock7m+/+Leprdb/J) are a widely used animal model of insulin resistance and diabetes. In our study, 4-week old male db/db mice were acclimated for a period of one week. At this point, when the mice were 5 weeks of age, the study was started. Mice were then divided into two group (n=10/group) and baseline measurements of non-fasted blood glucoses (using a glucometer) and body weight were taken. After baseline measurements, one group of mice was fed chow containing RIPK1 inhibitor (100 mg/kg/day, n=10) and the other remained on normal chow (n=10). Animals remained on these diets for 6 weeks. Additional measurements of non-fasted blood glucose and body weight were taken 2 and 4 weeks after study start. At week 8, mice were fasted overnight (16 hours) and fasted blood glucose and body weight were measured on the following day.

A20 (B lymphoma) = experiment: syngeneic subcutaneous tumor model A20; assay type: in vivo, mouse; settings: RIP1i = Example 78 40 mg/kg p.o. BID x up to 21 days
Procedure: (§1) The efficacy of RIP1 inhibition was tested in 12 different murine (6-8 week old) syngeneic subcutaenous tumor models. RIP1 inhibition was tested as a single agent in all models, with anti-PD1 combination arms added to the five of the final models.
(§2) T and C are the mean tumor volume of the treated and control groups, respectively, on a given day. • 2) Tumor and plasma collection at study end for further investigation.
(§3) The 12 syngenic cell lines were maintained in vitro with different medium (indicated in Table C) at 37° C. in an atmosphere of 5% CO2 in air. The tumor cells were routinely subcultured twice weekly. The cells in an exponential growth phase were harvested and counted for tumor inoculation.
(§4) Each mouse was inoculated subcutaneously with tumor cells in 0.1 mL of PBS for tumor development. The treatments were started when the mean tumor size reached approximately 80-120 mm^3 (around 100 mm^3).

RM-1(prostate) = experiment: syngeneic subcutaneous tumor model RM-1; assay type: in vivo, mouse; settings: RIP1i = Example 78 40 mg/kg p.o. BID, alone or with anti-PD1
Procedure: as §1, §2, §3, §4

MBT2 (bladder) = experiment: syngeneic subcutaneous tumor model MBT2; assay type: in vivo, mouse; settings: RIP1i = Example 78 40 mg/kg p.o. BID, alone or with anti-PD1
Procedure: as §1, §2, §3, §4

B16F10 (melanoma) = experiment: syngeneic subcutaneous tumor model B16F10; assay type: in vivo, mouse; settings: RIP1i = Example 78 40 mg/kg p.o. BID x up to 21 days
Procedure: as §1, §2, §3, §4

H22 (hepatoma) = experiment: syngeneic subcutaneous tumor model H-22; assay type: in vivo, mouse; settings: RIP1i = Example 78 40 mg/kg p.o. BID x up to 21 days
Procedure: as §1, §2, §3, §4

MC38 (colon) = experiment: syngeneic subcutaneous tumor model MC38; assay type: in vivo, mouse; settings: RIP1i = Example 78 40 mg/kg p.o. BID, alone or with anti-PD1
Procedure: as §1, §2, §3, §4

B16BL6 (melanoma) = experiment: syngeneic subcutaneous tumor model B16BL6; assay type: in vivo, mouse; settings: RIP1i = Example 78 40 mg/kg p.o. BID, alone or with anti-PD1
Procedure: as §1, §2, §3, §4

LL/2 (Lewis lung) = experiment: syngeneic subcutaneous tumor model LL/2; assay type: in vivo, mouse; settings: RIP1i = Example 78 40 mg/kg p.o. BID x up to 21 days
Procedure: as §1, §2, §3, §4

Renca (renal) = experiment: syngeneic subcutaneous tumor model Renca; assay type: in vivo, mouse; settings: RIP1i = Example 78 40 mg/kg p.o. BID x up to 21 days
Procedure: as §1, §2, §3, §4

[1] = system: Sharpin-deficient mice (cpdm); experiment: Sharpin-deficient mouse model of TNF-dependent dermatitis; assay type: in vivo; settings: food-based 100 or 10 mg/kg/day
Procedure: Sharpin-deficient mice (cpdm) develop a spontaneous and severe TNF- and RIPK1-dependent dermatitis and multi-organ immunopathology around 6-8 weeks of age (S. B. Berger et al., Journal of Immunology, 192(12):5476-5480, (2014)). Mice were dosed with RIP1 inhibitors at the time of weaning (3-4 weeks of age) prior to the development of dermatitis lesions or therapeutically after the development of dermatitis lesions (about 6 weeks of age) using a food-based dosing regimen, such that mice (4-7 mice per group) received on average 100 mg/kg/day or 10 mg/kg/day of RIP1 inhibitor in diet or control diet. […] The character of the lesion was categorized according the following, in order of increasing severity, 0=none, 1=excoriation only or one small punctuated crust (≤2 mm), 2=multiple, small punctuate crusts or coalescing crust (>2 mm), 3=erosion or ulceration. The regions were identified as: Region 1: the head cranial to the medial pinna attachment and/or lesions affecting the mandible cranial to the sternum, Region 2: inner and outer pinna, dorsal cervical region caudal to the medial pinna attachment, dorsal and ventral thorax, and thoracic limbs, Region 3: any region caudal to the ribcage. A score for the regions affected was categorized per the following: 0=none; 1=Region 2 or 3; 2=Region 2 and 3; 3=Region 1+/−other affected regions. […]

Pan02 (pancreatic) = experiment: syngeneic subcutaneous tumor model Pan02; assay type: in vivo, mouse; settings: Pan02, PG21; RIP1i = Example 78 40 mg/kg p.o. BID, alone or with anti-PD1
Procedure: as §1, §2, §3, §4

[2] = system: Diet-induced obese, male mice C57Bl/6J; experiment: obesity, high fat diet-fed mice; assay type: in vivo, mouse
Excerpt: Inflammation is known to be a contributing factor in the pathogenesis of diabetes and obesity (Chen. et. al., International Journal of Endocrinology (2015)). We therefore explored the effect of blocking RIPK1 kinase activity on body weight in mice made obese by chronic feeding of a high fat diet (HFD). Diet-induced obese, male mice C57Bl/6J (Jackson Labs Stock#380050) arrived at 22 weeks of age, with average body weight of 40 g and acclimated for one week and maintained on HFD. Mice were then acclimated to oral gavage with water for 7 days before study start. Thereafter mice received RIPK 1 inhibitor (50 mg/kg, bid, n=9) or vehicle (bid, n=9) for 19 days. Food intake was measured twice weekly and body weight was measured daily throughout the study.

CT26 (colon) = experiment: syngeneic subcutaneous tumor model CT-26; assay type: in vivo, mouse; settings: RIP1i = Example 78 40 mg/kg p.o. BID x up to 21 days
Procedure: as §1, §2, §3, §4

EMT-6 (breast) = experiment: syngeneic subcutaneous tumor model EMT-6; assay type: in vivo, mouse; settings: RIP1i = Example 78 40 mg/kg p.o. BID x up to 21 days
Procedure: as §1, §2, §3, §4

N#Cc1cc(N2CCC(C(=O)N3N=CC[C@H]3c3cc(F)cc(F)c3)CC2)ncn1 [Example 78, (S)-6-(4-(5-(3,5-difluorophenyl)-4,5-dihydro-1H-pyrazole-1-carbonyl)piperidin-1-yl)pyrimidine-4-carbonitrile]
fasted blood glucose (db/db mice; week 8, fasted overnight (16 hours), versus normal chow): improves fasted blood glucose; also recorded: significantly lower
non-fasted (fed) blood glucose (db/db mice; weeks 2 and 4, versus normal chow): improves fed blood glucose over time; also recorded: Reduced non-fasted blood glucose at weeks 2 and 4
Mean tumor growth inhibition (TGI) at model termination (A20 (B lymphoma)): 0.6%
Mean tumor growth inhibition (TGI) at model termination (RM-1(prostate)): −8%
Mean tumor growth inhibition (TGI) at model termination (MBT2 (bladder)): −4%
Mean tumor growth inhibition (TGI) at model termination (B16F10 (melanoma)): 20%
Mean tumor growth inhibition (TGI) at model termination (H22 (hepatoma)): 19%
Mean tumor growth inhibition (TGI) at model termination (MC38 (colon)): −16%
Mean tumor growth inhibition (TGI) at model termination (B16BL6 (melanoma)): 16%
Mean tumor growth inhibition (TGI) at model termination (LL/2 (Lewis lung)): 22%
Mean tumor growth inhibition (TGI) at model termination (Renca (renal)): 19%
development of severe dermatitis ([1]; pre-dosing from weaning (3-4 weeks of age)): complete protection from the development of severe dermatitis
established dermatitis ([1]; therapeutic dosing after development of lesions (about 6 weeks of age)): rescued established dermatitis
Mean tumor growth inhibition (TGI) at model termination (Pan02 (pancreatic)): PG21: 46%
body weight ([2]; 50 mg/kg bid PO for 19 days, versus vehicle): did not gain weight
food intake ([2]; 50 mg/kg bid PO, day 2 and day 5, versus vehicle): initially reduced their food intake
Mean tumor growth inhibition (TGI) at model termination (CT26 (colon)): 19%
Mean tumor growth inhibition (TGI) at model termination (EMT-6 (breast)): 21%
